Laboratory results from publication PMC3816693, “Cell Penetration Properties of a Highly Efficient Mini Maurocalcine Peptide” (Pharmaceuticals, 2013).
Bridges are numbered along the chain shown (N, C = ends). Where no end group is shown, it is not given here.

Columns and labels:
[1] = test system: glioma F98 cells; experiment: Cell penetration of Cy5-labeled peptides by flow cytometry (FACS); assay type: cell-based, rat; conditions: 2 h; for fold decrease in cell penetration efficacy relative to MCaUF1-9-C-Cy5: 3 µM, flow cytometry
Protocol: Undifferentiated malignant glioma rat (F98) cell line (from ATCC) was maintained at 37 °C in 5% CO2 in DMEM/F-12 nutrient medium (Invitrogen, Cergy Pontoise, France) supplemented with 2% (v/v) heat-inactivated fetal bovine serum (Invitrogen) and 100 µg/mL streptomycine and 100 units/mL penicillin (Invitrogen).
F98 cells were incubated with various concentrations of Cy5-labeled peptides in DMEM/F-12 culture medium without serum at 37 °C for 2 h. The cells were then washed with PBS to remove excess extracellular peptide and treated with 0.48 mM versene (Invitrogen) for 5 min at 37 °C to detach cells from the surface, and centrifuged at 200 g in DMEM/F-12 culture medium before suspension in PBS. For experiments concerning endocytosis inhibitors, F98 cells were initially preincubated in DMEM/F-12 culture medium without serum for 30 min at 37 °C with different inhibitors of endocytosis: (i) 100 µM amiloride, (ii) 5 µg/mL cytochalasin D (10 µM), (iii) 20 µM nocodazole, or (iv) 5 mM methyl-β-cyclodextrin (all from Sigma, Lyon, France). The cells were then incubated for 2 h at 37 °C with 1 µM MCaUF1-9-C-Cy5 in the presence of each drug. Flow cytometry analyses were performed with live cells using an Accuri C6 flow cytometer (BD Biosciences, Le Pont de Claix, France). Data were obtained and analyzed using CFlow Sampler (BD Biosciences). Live cells were gated by forward/side scattering from a total of 10,000 events.

[2] = cited from earlier work
Description: Even if the mechanism(s) of penetration of CPP are subject to debate, because of the rapidity of action of MCa on the ryanodine receptor, it appears clearly that one way of penetration of MCa can be membrane translocation. Furthermore, MCa has the ability to bind onto glycosaminoglycans, including heparin and heparan sulfates, with micromolar affinity.

[3] = high temperatures up to 100 °C or extreme pH values; cited from earlier work
Description: Maurocalcine (MCa) is a 33 amino acid residue peptide that was isolated in 2000 from the venom of the Tunisian chactid scorpion Scorpio maurus palmatus. It folds according to an ‘Inhibitor Cystine Knot’ (ICK) motif and contains three disulfide bridges connected by the following pattern: C1-C4, C2-C5 and C3-C6 [3]. Based on high amino acid sequence and pharmacological target similarities, MCa belongs to a larger family of scorpion toxins that also includes imperatoxin A (from Pandinus imperator), opicalcine 1 and opicalcine 2 (from Opistophthalmus carinatus), hemicalci ...

Substance	fold decrease in cell penetration efficacy relative to MCaUF1-9-C-Cy5 [1]	cell penetration compared with TAT-C-Cy5 as standard ([1]; dose-response by flow cytometry)	affinity of binding onto glycosaminoglycans [2]	stability of structure against denaturation [3]
MCaUF1-9(A3)-C-Cy5: Abu3 replaced by Ala	1.08 fold	–	–	–
MCaUF1-9(Q3)-C-Cy5: Abu3 replaced by Gln	2.94 fold	behaved similarly to TAT	–	–
Maurocalcine (GDCLPHLKLCKENKDCCSKKCKRRGTNIEKRCR; disulfide 10-21, 16-32, 3-17; UniProt P60254 1-33, looked up) [MCa]	–	–	micromolar	cannot be denatured
